Experimental data from patent US9624170B2, “4-(piperrazin-1-yl)-pyrrolidin-2-one compounds as monoacylglycerol lipase (MAGL) inhibitors” (TAKEDA PHARMACEUTICAL COMPANY LIMITED, priority 2013, dated 2017).
Where a name gives a salt, the structure may show the parent alone.

Target: T1, human MAGL (His-hMAGL) (Homo sapiens, UniProt Q99685)
T1 construct: made in house; host or cells: Escherichia coli BL21(DE3)
T1 sequence (Q99685 1-303): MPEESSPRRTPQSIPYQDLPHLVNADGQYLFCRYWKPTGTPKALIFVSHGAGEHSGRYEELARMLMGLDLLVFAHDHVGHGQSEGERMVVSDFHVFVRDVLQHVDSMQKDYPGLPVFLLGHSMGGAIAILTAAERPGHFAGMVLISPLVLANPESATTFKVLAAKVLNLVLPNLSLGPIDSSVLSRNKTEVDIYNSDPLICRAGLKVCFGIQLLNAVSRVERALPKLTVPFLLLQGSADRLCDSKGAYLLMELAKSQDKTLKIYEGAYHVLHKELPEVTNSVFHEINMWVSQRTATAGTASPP
Assay: Measurement of MAGL inhibitory activity by mass spectrometry
Format: biochemical
Settings: MAGL inhibitory rate, test compound 10 μM, His-hMAGL, substrate 2-arachidonylglycerol, RapidFire-mass spectrometry
How it was run: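 His-tagged human MAGL was reacted with 150 μM 2-arachidonylglycerol substrate (stock, added by 5 μL) for 10 min at room temperature, then stopped with formic acid. Arachidonic acid product was quantified by RapidFire–triple-quadrupole MS in negative SRM mode, corrected by arachidonic acid-d8, and converted to percent inhibition.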

| Structure (SMILES) | inhibition at 10 µM |
| --- | --- |
| CC1C(N2CCN(C(=O)c3nccs3)CC2)CC(=O)N1c1ccc(Oc2ccccc2)cc1 (centres unmarked) [Example 228, 5-Methyl-1-(4-phenoxyphenyl)-4-(4-(1,3-thiazol-2-ylcarbonyl)piperazin-1-yl)pyrrolidin-2-one] | 96% |
| CN1C(=O)Cc2cccc(-c3cccc(N4CC(N5CCN(C(=O)c6nccs6)CC5)CC4=O)c3)c21 (centres unmarked) [Example 229, 1-methyl-7-(3-(2-oxo-4-(4-(1,3-thiazol-2-ylcarbonyl)piperazin-1-yl)pyrrolidin-1-yl)phenyl)-1,3-dihydro-2H-indol-2-one] | 100% |
| CN1C(=O)Cc2c(-c3cccc(N4CC(N5CCN(C(=O)c6nccs6)CC5)CC4=O)c3)cccc21 (centres unmarked) [Example 230, 1-methyl-4-(3-(2-oxo-4-(4-(1,3-thiazol-2-ylcarbonyl)piperazin-1-yl)pyrrolidin-1-yl)phenyl)-1,3-dihydro-2H-indol-2-one] | 101% |
| CC1(C)C(=O)Nc2cccc(-c3cccc(N4CC(N5CCN(C(=O)c6nccs6)CC5)CC4=O)c3)c21 (centres unmarked) [Example 231, 3,3-dimethyl-4-(3-(2-oxo-4-(4-(1,3-thiazol-2-ylcarbonyl)piperazin-1-yl)pyrrolidin-1-yl)phenyl)-1,3-dihydro-2H-indol-2-one] | 100% |
| O=C(c1cscn1)N1CCN(C2CC(=O)N(c3cccc(-c4ccccc4Cl)c3)C2)CC1 (stereo not drawn) [Example 232, 1-(2′-Chlorobiphenyl-3-yl)-4-(4-(1,3-thiazol-4-ylcarbonyl)piperazin-1-yl)pyrrolidin-2-one (optical isomer)] | 99% |
| O=C(c1nccs1)N1CCN([C@@H]2CC(=O)N(c3ccc4c(ccn4-c4ccc(C(F)(F)F)nn4)c3)C2)CC1 [Example 234, (4R)-4-(4-(1,3-thiazol-2-ylcarbonyl)piperazin-1-yl)-1-(1-(6-(trifluoromethyl)pyridazin-3-yl)-1H-indol-5-yl)pyrrolidin-2-one] | 98% |
| Cc1ccc(-n2ccc3cc(N4CC(N5CCN(C(=O)c6nccs6)CC5)CC4=O)ccc32)cc1 (centres unmarked) [Example 235, 1-(1-(4-methylphenyl)-1H-indol-5-yl)-4-(4-(1,3-thiazol-2-ylcarbonyl)piperazin-1-yl)pyrrolidin-2-one] | 100% |
| Cc1cccc(-n2ccc3cc(N4CC(N5CCN(C(=O)c6nccs6)CC5)CC4=O)ccc32)n1 (centres unmarked) [Example 238, 1-(1-(6-methylpyridin-2-yl)-1H-indol-5-yl)-4-(4-(1,3-thiazol-2-ylcarbonyl)piperazin-1-yl)pyrrolidin-2-one] | 100% |
| Cc1ccc(-n2ccc3cc(N4CC(N5CCN(C(=O)c6nccs6)CC5)CC4=O)ccc32)nc1 (centres unmarked) [Example 239, 1-(1-(5-methylpyridin-2-yl)-1H-indol-5-yl)-4-(4-(1,3-thiazol-2-ylcarbonyl)piperazin-1-yl)pyrrolidin-2-one] | 100% |
| Cc1cc(-c2ccccc2)cc(N2CC(N3CCN(C(=O)c4nccs4)CC3)CC2=O)c1 (centres unmarked) [Example 240, 1-(5-methylbiphenyl-3-yl)-4-(4-(1,3-thiazol-2-ylcarbonyl)piperazin-1-yl)pyrrolidin-2-one] | 99% |
| O=C(c1nccs1)N1CCN(C2CC(=O)N(c3cc(-c4ccccc4)ccc3F)C2)CC1 (centres unmarked) [Example 241, 1-(4-fluorobiphenyl-3-yl)-4-(4-(1,3-thiazol-2-ylcarbonyl)piperazin-1-yl)pyrrolidin-2-one] | 96% |
| O=C(c1nccs1)N1CCN(C2CC(=O)N(c3cc(F)cc(-c4ccccc4)c3)C2)CC1 (centres unmarked) [Example 242, 1-(5-fluorobiphenyl-3-yl)-4-(4-(1,3-thiazol-2-ylcarbonyl)piperazin-1-yl)pyrrolidin-2-one] | 99% |
| O=C(c1nccs1)N1CCN(C2CC(=O)N(c3ccc(F)c(-c4ccccc4)c3)C2)CC1 (centres unmarked) [Example 243, 1-(6-fluorobiphenyl-3-yl)-4-(4-(1,3-thiazol-2-ylcarbonyl)piperazin-1-yl)pyrrolidin-2-one] | 100% |
| O=C(c1nccs1)N1CCN(C2CC(=O)N(c3cccc(-c4ccccc4)c3F)C2)CC1 (centres unmarked) [Example 244, 1-(2-fluorobiphenyl-3-yl)-4-(4-(1,3-thiazol-2-ylcarbonyl)piperazin-1-yl)pyrrolidin-2-one] | 98% |
| O=C(c1nccs1)N1CCN([C@@H]2CC(=O)N(c3ccc4c(ccn4-c4cnc(C(F)(F)F)cn4)c3)C2)CC1 [Example 245, (4R)-4-(4-(1,3-thiazol-2-ylcarbonyl)piperazin-1-yl)-1-(1-(5-(trifluoromethyl)pyrazin-2-yl)-1H-indol-5-yl)pyrrolidin-2-one] | 98% |
| O=C(c1nccs1)N1CCN([C@@H]2CC(=O)N(c3ccc4c(ccn4-c4ccnc(C(F)(F)F)c4)c3)C2)CC1 [Example 246, (4R)-4-(4-(1,3-thiazol-2-ylcarbonyl)piperazin-1-yl)-1-(1-(2-(trifluoromethyl)pyridin-4-yl)-1H-indol-5-yl)pyrrolidin-2-one] | 98% |

| Structure (SMILES) | inhibition at 10 µM |
| --- | --- |
| Cc1ccc(-c2ccccc2)cc1N1CC(N2CCN(C(=O)c3nccs3)CC2)CC1=O (centres unmarked) [Example 247, 1-(4-methylbiphenyl-3-yl)-4-(4-(1,3-thiazol-2-ylcarbonyl)piperazin-1-yl)pyrrolidin-2-one] | 99% |
| Cc1ccc(N2CC(N3CCN(C(=O)c4nccs4)CC3)CC2=O)cc1-c1ccccc1 (centres unmarked) [Example 248, 1-(6-methylbiphenyl-3-yl)-4-(4-(1,3-thiazol-2-ylcarbonyl)piperazin-1-yl)pyrrolidin-2-one] | 103% |
| Cc1c(-c2ccccc2)cccc1N1CC(N2CCN(C(=O)c3nccs3)CC2)CC1=O (centres unmarked) [Example 249, 1-(2-methylbiphenyl-3-yl)-4-(4-(1,3-thiazol-2-ylcarbonyl)piperazin-1-yl)pyrrolidin-2-one] | 96% |
| O=C(c1nccs1)N1CCN(C2CC(=O)N(c3ccc4c(ccn4-c4ccccc4)c3)C2)CC1 (centres unmarked) [Example 250, 1-(1-phenyl-1H-indol-5-yl)-4-(4-(1,3-thiazol-2-ylcarbonyl)piperazin-1-yl)pyrrolidin-2-one] | 101% |
| Cc1cccc(-n2ccc3cc(N4CC(N5CCN(C(=O)c6nccs6)CC5)CC4=O)ccc32)c1 (centres unmarked) [Example 251, 1-(1-(3-methylphenyl)-1H-indol-5-yl)-4-(4-(1,3-thiazol-2-ylcarbonyl)piperazin-1-yl)pyrrolidin-2-one] | 102% |
| Cc1ccnc(-n2ccc3cc(N4CC(N5CCN(C(=O)c6nccs6)CC5)CC4=O)ccc32)c1 (centres unmarked) [Example 252, 1-(1-(4-methylpyridin-2-yl)-1H-indol-5-yl)-4-(4-(1,3-thiazol-2-ylcarbonyl)piperazin-1-yl)pyrrolidin-2-one] | 103% |
| Cc1ccccc1-n1ccc2cc(N3CC(N4CCN(C(=O)c5nccs5)CC4)CC3=O)ccc21 (centres unmarked) [Example 253, 1-(1-(2-methylphenyl)-1H-indol-5-yl)-4-(4-(1,3-thiazol-2-ylcarbonyl)piperazin-1-yl)pyrrolidin-2-one] | 101% |
| O=C1CC(N2CCN(c3ncccn3)CC2)CN1c1cccc(I)c1 (centres unmarked) [Example 254, 1-(3-iodophenyl)-4-(4-(pyrimidin-2-yl)piperazin-1-yl)pyrrolidin-2-one] | 95% |
| Cc1cc(-n2ccc3cc(N4CC(N5CCN(C(=O)c6nccs6)CC5)CC4=O)ccc32)ccn1 (centres unmarked) [Example 255, 1-(1-(2-methylpyridin-4-yl)-1H-indol-5-yl)-4-(4-(1,3-thiazol-2-ylcarbonyl)piperazin-1-yl)pyrrolidin-2-one] | 101% |
| Cc1ncccc1-c1cccc(N2CC(N3CCN(c4ncccn4)CC3)CC2=O)c1 (centres unmarked) [Example 256, 1-(3-(2-Methylpyridin-3-yl)phenyl)-4-(4-(pyrimidin-2-yl)piperazin-1-yl)pyrrolidin-2-one] | 102% |
| O=C(c1nccs1)N1CCN([C@@H]2CC(=O)N(c3ccc4c(ccn4-c4ncc(C(F)(F)F)cn4)c3)C2)CC1 [Example 257, (4R)-4-(4-(1,3-Thiazol-2-ylcarbonyl)piperazin-1-yl)-1-(1-(5-(trifluoromethyl)pyrimidin-2-yl)-1H-indol-5-yl)pyrrolidin-2-one hydrochloride] | 99% |
| Cc1nc(C)c(-c2cccc(N3CC(N4CCN(C(=O)c5nccs5)CC4)CC3=O)c2)s1 (stereo not drawn) [Example 258, 1-(3-(2,4-dimethyl-1,3-thiazol-5-yl)phenyl)-4-(4-(1,3-thiazol-2-ylcarbonyl)piperazin-1-yl)pyrrolidin-2-one(optical isomer)] | 102% |
| O=C(c1nccs1)N1CCN(C2CN(c3ccc(Oc4ccccc4)cc3)C(=O)C2O)CC1 (centres unmarked) [Example 260, 3-Hydroxy-1-(4-phenoxyphenyl)-4-(4-(1,3-thiazol-2-ylcarbonyl)piperazin-1-yl)pyrrolidin-2-one] | 84% |
| O=C(c1nccs1)N1CCN(C2CN(c3ccc(Oc4ccccc4)cc3)C(=O)C2F)CC1 (centres unmarked) [Example 261, 3-Fluoro-1-(4-phenoxyphenyl)-4-(4-(1,3-thiazol-2-ylcarbonyl)piperazin-1-yl)pyrrolidin-2-one] | 100% |
| Cc1cc(-c2ccc(N3CC(N4CCN(C(=O)c5nccs5)CC4)CC3=O)cc2)ccn1 (centres unmarked) [Example 264, 1-(4-(2-methylpyridin-4-yl)phenyl)-4-(4-(1,3-thiazol-2-ylcarbonyl)piperazin-1-yl)pyrrolidin-2-one] | 92% |
| Cc1ccc(-c2ccc(N3CC(N4CCN(C(=O)c5nccs5)CC4)CC3=O)cc2)cn1 (centres unmarked) [Example 265, 1-(4-(6-methylpyridin-3-yl)phenyl)-4-(4-(1,3-thiazol-2-ylcarbonyl)piperazin-1-yl)pyrrolidin-2-one] | 97% |
